pEC50, pIC50: −log10 of the molar value. Calls of active or inactive are those of the source. The rule behind the calls is not given here.
How the values were obtained:
[1] = Induction of apoptosis in human HDF-1 cells assessed as increase in caspase3/7 activity at 60 uM after 24 hrs by caspase Glo-3/7 assay; format: cell-based; settings: hdf-1, 24 h
[2] = target: Protein kinase C delta type (Homo sapiens) (UniProt Q05655); test: Inhibition of human full length PKC delta expressed in insect cells using PKCe peptide as substrate at 100 nM by radiometric assay in presence of [32P]ATP and lipid activator
[3] = target: T1, cAMP-dependent protein kinase catalytic subunit PRKX (Homo sapiens) (UniProt P51817); test: Inhibition of human full length N-terminal GST-tagged PRKX expressed in insect cells using kemptide as substrate at 100 nM by radiometric assay in presence of [32P]ATP
T1 sequence (whole entry): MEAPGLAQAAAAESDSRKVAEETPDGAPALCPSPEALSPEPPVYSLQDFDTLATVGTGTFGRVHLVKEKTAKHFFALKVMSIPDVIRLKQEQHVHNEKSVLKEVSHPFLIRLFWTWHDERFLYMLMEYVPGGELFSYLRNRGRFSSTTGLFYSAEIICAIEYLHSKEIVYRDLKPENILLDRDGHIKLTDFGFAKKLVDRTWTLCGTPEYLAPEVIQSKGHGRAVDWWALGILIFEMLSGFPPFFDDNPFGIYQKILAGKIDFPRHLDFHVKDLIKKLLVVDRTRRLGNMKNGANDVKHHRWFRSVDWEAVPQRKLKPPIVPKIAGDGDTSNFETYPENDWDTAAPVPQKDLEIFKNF

[4] = target: Protein kinase C eta type (Homo sapiens) (UniProt P24723); test: Inhibition of human N-terminal GST-tagged PKC eta expressed in baculovirus-infected insect cells using PKCe peptide as substrate at 10 nM by radiometric assay in presence of [32P]ATP and lipid activator
[5] = Lipophilicity, log D of the compound at pH 7.4; format: physicochemical; settings: buffer
[6] = target: Ribosomal protein S6 kinase alpha-5 (Homo sapiens) (UniProt O75582); test: Inhibition of human full length N-terminal GST-tagged MSK1 expressed in insect cells using crosstide as substrate at 100 nM by radiometric assay in presence of [32P]ATP
[7] = Cytotoxicity against human HDF-1 cells assessed as decrease in cell viability after 2 hrs by WST-1 assay; format: cell-based
[8] = Half life in NewZealand white rabbit hepatocytes by LC-PDA-MSA analysis; format: ADME, cell-based, Oryctolagus cuniculus, Hepatocyte; settings: New Zealand white
[9] = Cmax in NewZealand white rabbit plasma at 0.1 mg/kg, iv after 30-60 mins by LC-MS/MS analysis; format: ADME, organism-based, Oryctolagus cuniculus; parameters: dose 0.1 mg/kg, route intravenous; settings: New Zealand white
[10] = target: Protein kinase C eta type (Homo sapiens) (UniProt P24723); test: Inhibition of human N-terminal GST-tagged PKC eta expressed in baculovirus-infected insect cells using PKCe peptide as substrate at 100 nM by radiometric assay in presence of [32P]ATP and lipid activator
[11] = target: Rho-associated protein kinase 1 (Homo sapiens, UniProt Q13464); test: Inhibition of human N-terminal GST-tagged ROCK1 expressed in insect cells using long S6 kinase peptide as substrate by radiometric assay in presence of [32P]ATP
[12] = Half life in NewZealand white rabbit plasma at 0.1 mg/kg, iv by LC-MS/MS analysis; format: ADME, organism-based, Oryctolagus cuniculus; parameters: dose 0.1 mg/kg, route intravenous; settings: New Zealand white
[13] = target: Serine/threonine-protein kinase N2 (Homo sapiens) (UniProt Q16513); test: Inhibition of human full length N-terminal GST-tagged PRK2 expressed in insect cells using glycogen synthase derived peptide as substrate at 100 nM by radiometric assay in presence of [32P]ATP
[14] = Half life in human plasma by LC-MS/MS analysis; format: ADME, cell-free
[15] = target: Serine/threonine-protein kinase N1 (Homo sapiens) (UniProt Q16512); test: Inhibition of human full length N-terminal GST-tagged PRK1 expressed in insect cells using glycogen synthase derived peptide as substrate at 100 nM by radiometric assay in presence of [32P]ATP
[16] = Inhibition of ROCK-catalysed MLC Thr18/Ser19 phosphorylation in rat A7r5 cells after 90 mins by ELISA; format: cell-based; settings: A7R5, 1.5 h
[17] = target: Serine/threonine-protein kinase N2 (Homo sapiens) (UniProt Q16513); test: Inhibition of human full length N-terminal GST-tagged PRK2 expressed in insect cells using glycogen synthase derived peptide as substrate at 10 nM by radiometric assay in presence of [32P]ATP
[18] = target: T2, Protein kinase C epsilon type (Homo sapiens) (UniProt Q02156); test: Inhibition of human full length PKC epsilon expressed in insect cells using S25 PKC peptide as substrate at 100 nM by radiometric assay in presence of [32P]ATP
T2 sequence (whole entry): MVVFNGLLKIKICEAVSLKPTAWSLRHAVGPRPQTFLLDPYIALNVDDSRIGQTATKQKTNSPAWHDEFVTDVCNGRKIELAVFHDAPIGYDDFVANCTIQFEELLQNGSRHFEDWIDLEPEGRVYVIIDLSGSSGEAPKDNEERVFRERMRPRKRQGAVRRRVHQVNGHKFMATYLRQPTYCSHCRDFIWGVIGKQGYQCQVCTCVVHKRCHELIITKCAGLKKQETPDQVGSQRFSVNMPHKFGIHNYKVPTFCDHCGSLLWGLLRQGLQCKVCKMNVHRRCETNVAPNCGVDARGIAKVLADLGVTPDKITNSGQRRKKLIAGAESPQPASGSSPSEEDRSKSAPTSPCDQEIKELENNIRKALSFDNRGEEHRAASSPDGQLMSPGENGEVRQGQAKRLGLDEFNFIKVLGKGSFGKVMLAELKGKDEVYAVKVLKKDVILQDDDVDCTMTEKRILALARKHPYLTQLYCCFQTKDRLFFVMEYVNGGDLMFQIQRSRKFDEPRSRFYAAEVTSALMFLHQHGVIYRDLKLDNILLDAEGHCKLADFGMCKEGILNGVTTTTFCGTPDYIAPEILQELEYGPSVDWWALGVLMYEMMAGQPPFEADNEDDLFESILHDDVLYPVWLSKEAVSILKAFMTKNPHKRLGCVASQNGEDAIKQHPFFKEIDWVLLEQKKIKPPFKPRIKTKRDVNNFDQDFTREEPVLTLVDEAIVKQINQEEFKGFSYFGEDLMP

Oryctolagus cuniculus [19] = test: Cmax in NewZealand white rabbit plasma assessed as 4-{[(2'-(Aminomethyl)-5'-{[(3-fluoropyridin-4-yl)amino]-carbonyl}biphenyl-3-yl)carbonyl]amino}benzoic Acid at 0.1 mg/kg, iv after 10 mins by LC-MS/MS analysis; format: ADME, organism-based; parameters: dose 0.1 mg/kg, route intravenous; settings: in vivo
[20] = Apparent permeability across human Caco2 cells; format: ADME, cell-based; settings: Caco-2
[21] = Half life in NewZealand white rabbit plasma by LC-MS/MS analysis; format: ADME, cell-free, Oryctolagus cuniculus; settings: New Zealand white
[22] = Stability in NewZealand white rabbit hepatocytes assessed as compound remaining after 120 mins by LC-MS/MS analysis; format: ADME, cell-based, Oryctolagus cuniculus, Hepatocyte; settings: New Zealand white, read-out: Stability
[23] = Stability in human hepatocytes assessed as compound remaining after 120 mins by LC-MS/MS analysis; format: ADME, cell-based, Hepatocyte; settings: read-out: Stability
[24] = Cmax in NewZealand white rabbit plasma at 0.1 mg/kg, iv after 10 mins by LC-MS/MS analysis; format: ADME, organism-based, Oryctolagus cuniculus; parameters: dose 0.1 mg/kg, route intravenous; settings: New Zealand white
Homo sapiens = species: Homo sapiens; test: Inhibition of human full length C-terminal His6-tagged PKC theta P300L mutant expressed in baculovirus-infected insect cells using histone H1 as substrate at 100 nM by radiometric assay in presence of [32P]ATP and lipid activator
[25] = Cmax in NewZealand white rabbit plasma at 0.1 mg/kg, iv after 1 min by LC-MS/MS analysis; format: ADME, organism-based, Oryctolagus cuniculus; parameters: dose 0.1 mg/kg, route intravenous; settings: New Zealand white
[26] = target: T3, Rho-associated protein kinase 2 (Homo sapiens, UniProt O75116); test: Inhibition of human N-terminal GST-tagged ROCK2 expressed in baculovirus-infected insect cells using long S6 kinase peptide as substrate by radiometric assay in presence of [32P]ATP
HDF-1 = test: Induction of cell migration in human HDF-1 cells after 8 hrs by wound healing assay; format: functional, cell-based
[27] = target: T3, Rho-associated protein kinase 2; test: Inhibition of human N-terminal GST-tagged ROCK2 expressed in baculovirus-infected insect cells using long S6 kinase peptide as substrate by radiometric assay in presence of [32P]ATP and 200 uM ATP
Oryctolagus cuniculus [28] = test: Cmax in NewZealand white rabbit plasma assessed as 4-{[(2'-(Aminomethyl)-5'-{[(3-fluoropyridin-4-yl)amino]-carbonyl}biphenyl-3-yl)carbonyl]amino}benzoic Acid at 0.1 mg/kg, iv after 120 mins by LC-MS/MS analysis; format: ADME, organism-based; parameters: dose 0.1 mg/kg, route intravenous; settings: in vivo, 2 h
[29] = Half life in human hepatocytes by LC-PDA-MSA analysis; format: ADME, cell-based, Hepatocyte
[30] = Cmax in NewZealand white rabbit plasma at 0.1 mg/kg, iv after 5 mins by LC-MS/MS analysis; format: ADME, organism-based, Oryctolagus cuniculus; parameters: dose 0.1 mg/kg, route intravenous; settings: New Zealand white

Chain of Protein kinase C eta type (Homo sapiens) (P24723 whole entry): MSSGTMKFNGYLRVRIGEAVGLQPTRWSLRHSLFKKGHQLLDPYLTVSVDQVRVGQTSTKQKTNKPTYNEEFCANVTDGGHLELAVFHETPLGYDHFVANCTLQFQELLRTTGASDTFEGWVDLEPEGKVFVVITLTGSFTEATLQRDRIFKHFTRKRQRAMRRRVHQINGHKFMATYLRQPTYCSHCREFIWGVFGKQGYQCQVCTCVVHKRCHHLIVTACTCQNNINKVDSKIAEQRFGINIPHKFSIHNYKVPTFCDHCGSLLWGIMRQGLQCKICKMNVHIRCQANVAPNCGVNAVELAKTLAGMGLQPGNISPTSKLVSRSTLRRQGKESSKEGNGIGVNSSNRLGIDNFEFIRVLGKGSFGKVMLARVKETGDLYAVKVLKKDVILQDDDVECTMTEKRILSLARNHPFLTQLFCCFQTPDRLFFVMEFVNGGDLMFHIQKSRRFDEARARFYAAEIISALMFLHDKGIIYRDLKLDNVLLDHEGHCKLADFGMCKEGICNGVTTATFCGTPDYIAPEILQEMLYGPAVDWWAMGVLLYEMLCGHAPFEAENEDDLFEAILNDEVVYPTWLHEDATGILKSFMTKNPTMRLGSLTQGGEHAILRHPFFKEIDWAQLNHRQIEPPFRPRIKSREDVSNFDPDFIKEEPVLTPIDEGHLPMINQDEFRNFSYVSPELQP
Chain of Serine/threonine-protein kinase N2 (Homo sapiens) (Q16513 whole entry, looked up): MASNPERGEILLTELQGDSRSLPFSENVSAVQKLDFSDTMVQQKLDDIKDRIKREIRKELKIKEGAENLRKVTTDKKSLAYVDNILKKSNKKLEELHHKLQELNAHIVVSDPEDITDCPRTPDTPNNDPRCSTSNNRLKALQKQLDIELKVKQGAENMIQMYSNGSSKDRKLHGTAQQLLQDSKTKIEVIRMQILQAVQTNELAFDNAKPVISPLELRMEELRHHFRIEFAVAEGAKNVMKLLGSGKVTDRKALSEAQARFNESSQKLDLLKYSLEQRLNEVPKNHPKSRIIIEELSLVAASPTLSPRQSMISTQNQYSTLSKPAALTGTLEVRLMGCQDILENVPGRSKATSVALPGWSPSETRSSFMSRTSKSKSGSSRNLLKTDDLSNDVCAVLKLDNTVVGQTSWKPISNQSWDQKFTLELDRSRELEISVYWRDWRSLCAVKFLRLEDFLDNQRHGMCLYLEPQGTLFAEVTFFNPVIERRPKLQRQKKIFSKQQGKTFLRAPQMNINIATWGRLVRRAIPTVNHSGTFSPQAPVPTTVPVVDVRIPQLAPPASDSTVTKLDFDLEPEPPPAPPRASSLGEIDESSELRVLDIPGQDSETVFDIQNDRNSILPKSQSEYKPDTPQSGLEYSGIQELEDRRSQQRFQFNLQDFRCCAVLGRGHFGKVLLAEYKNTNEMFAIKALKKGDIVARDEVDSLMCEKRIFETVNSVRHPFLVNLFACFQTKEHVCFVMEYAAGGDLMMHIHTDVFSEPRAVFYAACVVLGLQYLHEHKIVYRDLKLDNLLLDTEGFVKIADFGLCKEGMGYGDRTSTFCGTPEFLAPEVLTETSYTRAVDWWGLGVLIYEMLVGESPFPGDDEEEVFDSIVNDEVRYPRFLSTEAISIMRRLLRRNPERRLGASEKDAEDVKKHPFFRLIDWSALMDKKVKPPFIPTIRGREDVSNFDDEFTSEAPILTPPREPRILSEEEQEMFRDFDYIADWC
T3 sequence (O75116 whole entry): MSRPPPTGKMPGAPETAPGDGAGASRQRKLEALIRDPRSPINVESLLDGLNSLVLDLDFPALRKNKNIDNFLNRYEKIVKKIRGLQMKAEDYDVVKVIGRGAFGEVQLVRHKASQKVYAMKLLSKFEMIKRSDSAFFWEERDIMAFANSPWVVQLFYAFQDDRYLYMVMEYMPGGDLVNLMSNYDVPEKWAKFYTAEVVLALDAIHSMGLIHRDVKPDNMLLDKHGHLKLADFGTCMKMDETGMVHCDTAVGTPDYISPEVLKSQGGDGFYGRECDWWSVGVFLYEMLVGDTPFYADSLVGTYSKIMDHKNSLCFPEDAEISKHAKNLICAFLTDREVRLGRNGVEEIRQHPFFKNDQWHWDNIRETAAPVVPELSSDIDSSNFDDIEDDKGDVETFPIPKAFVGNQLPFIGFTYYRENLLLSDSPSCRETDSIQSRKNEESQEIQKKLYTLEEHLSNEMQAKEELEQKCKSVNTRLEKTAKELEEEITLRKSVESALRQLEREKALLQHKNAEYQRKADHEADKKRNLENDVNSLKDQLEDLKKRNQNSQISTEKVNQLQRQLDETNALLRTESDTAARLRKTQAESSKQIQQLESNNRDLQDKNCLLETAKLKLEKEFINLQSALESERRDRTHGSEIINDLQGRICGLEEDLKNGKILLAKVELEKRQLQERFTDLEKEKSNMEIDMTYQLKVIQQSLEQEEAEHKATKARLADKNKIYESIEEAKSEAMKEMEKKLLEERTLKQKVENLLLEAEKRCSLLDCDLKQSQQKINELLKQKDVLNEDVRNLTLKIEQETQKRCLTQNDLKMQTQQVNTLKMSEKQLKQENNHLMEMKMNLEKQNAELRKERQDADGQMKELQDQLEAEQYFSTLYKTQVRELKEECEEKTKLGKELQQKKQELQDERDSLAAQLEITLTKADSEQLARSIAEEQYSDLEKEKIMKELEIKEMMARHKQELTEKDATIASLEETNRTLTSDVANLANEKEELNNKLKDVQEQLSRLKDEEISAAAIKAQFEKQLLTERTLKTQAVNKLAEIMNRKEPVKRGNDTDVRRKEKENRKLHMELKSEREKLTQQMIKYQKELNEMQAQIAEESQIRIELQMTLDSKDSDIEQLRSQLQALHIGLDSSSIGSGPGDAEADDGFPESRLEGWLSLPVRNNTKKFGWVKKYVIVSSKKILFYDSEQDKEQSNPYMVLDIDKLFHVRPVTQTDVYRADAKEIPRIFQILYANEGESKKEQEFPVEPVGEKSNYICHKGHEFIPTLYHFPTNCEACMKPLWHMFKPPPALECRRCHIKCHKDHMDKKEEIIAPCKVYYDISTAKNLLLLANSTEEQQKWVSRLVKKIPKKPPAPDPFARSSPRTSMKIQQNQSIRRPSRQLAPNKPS
Chain of Rho-associated protein kinase 1 (Q13464 whole entry): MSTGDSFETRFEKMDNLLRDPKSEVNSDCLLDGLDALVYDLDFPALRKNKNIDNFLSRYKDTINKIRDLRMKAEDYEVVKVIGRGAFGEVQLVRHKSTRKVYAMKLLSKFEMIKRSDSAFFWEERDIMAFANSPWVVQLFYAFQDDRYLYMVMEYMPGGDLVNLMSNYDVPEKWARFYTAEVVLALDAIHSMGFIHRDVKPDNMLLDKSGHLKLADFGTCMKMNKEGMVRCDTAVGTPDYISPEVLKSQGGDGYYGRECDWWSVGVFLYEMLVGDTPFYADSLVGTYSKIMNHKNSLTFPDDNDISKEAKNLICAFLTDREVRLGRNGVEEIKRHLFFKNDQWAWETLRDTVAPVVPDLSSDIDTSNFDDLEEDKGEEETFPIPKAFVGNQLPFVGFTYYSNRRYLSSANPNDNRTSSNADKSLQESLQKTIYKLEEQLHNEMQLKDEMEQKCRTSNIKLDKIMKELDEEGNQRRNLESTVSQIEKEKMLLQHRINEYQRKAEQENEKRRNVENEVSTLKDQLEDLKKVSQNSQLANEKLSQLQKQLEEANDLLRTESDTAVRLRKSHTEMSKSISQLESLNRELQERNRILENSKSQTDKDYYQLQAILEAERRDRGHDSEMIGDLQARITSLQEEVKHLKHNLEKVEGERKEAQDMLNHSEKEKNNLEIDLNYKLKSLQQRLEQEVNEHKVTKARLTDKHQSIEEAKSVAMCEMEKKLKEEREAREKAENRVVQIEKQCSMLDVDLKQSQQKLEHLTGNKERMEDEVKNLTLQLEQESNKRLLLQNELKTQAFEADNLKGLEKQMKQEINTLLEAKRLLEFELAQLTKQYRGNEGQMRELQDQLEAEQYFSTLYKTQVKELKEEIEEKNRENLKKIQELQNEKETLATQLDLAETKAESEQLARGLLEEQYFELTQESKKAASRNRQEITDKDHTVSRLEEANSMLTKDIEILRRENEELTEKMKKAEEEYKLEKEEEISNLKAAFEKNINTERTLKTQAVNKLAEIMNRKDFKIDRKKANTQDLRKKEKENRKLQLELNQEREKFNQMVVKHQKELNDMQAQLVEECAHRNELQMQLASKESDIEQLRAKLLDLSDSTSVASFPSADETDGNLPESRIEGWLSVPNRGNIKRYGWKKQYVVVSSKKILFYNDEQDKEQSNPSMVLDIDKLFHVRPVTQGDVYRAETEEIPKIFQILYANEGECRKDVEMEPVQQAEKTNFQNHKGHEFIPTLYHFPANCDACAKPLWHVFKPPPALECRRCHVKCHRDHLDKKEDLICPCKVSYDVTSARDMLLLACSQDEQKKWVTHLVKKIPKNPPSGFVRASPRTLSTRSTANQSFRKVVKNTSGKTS
Chain of Protein kinase C delta type (Homo sapiens) (Q05655 whole entry, looked up): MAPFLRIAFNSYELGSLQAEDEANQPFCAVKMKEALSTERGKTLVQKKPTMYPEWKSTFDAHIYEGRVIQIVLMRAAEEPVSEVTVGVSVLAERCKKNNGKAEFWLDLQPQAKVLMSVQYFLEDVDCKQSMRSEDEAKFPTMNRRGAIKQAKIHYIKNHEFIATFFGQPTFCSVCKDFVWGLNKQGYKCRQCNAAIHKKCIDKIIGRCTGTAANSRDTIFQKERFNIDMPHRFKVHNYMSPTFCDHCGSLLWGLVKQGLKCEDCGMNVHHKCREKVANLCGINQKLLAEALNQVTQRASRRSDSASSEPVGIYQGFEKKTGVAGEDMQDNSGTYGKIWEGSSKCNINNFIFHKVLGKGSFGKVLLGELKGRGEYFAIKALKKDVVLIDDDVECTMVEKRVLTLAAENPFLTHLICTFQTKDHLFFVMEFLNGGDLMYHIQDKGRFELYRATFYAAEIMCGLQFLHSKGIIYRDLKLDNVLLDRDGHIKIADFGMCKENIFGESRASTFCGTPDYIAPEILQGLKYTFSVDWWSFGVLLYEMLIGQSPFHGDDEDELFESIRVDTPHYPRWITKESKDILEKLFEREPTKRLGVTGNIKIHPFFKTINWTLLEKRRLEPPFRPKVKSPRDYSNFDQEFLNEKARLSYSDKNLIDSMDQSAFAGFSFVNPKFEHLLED

COC(=O)c1ccc(NC(=O)c2cccc(-c3cc(C(=O)Nc4ccncc4F)ccc3CN)c2)cc1
Activity [1]: Toxic | inhibition [2]: Active | inhibition [3]: Active | inhibition [4]: > 50% | logD [5]: 2.74 | inhibition [6]: Active | CC50 at 2 h [7]: 46000 nM | half-life [8]: 12 min | Cmax [9]: > 8 nM | inhibition [10]: Active | pIC50 [11]: > 9.00 | half-life [12]: 22 min | inhibition [13]: Active | half-life [14]: > 120 min | inhibition [15]: Active | pEC50 [16]: 8.52 | inhibition [17]: > 50% | inhibition [18]: Active | Cmax (Oryctolagus cuniculus [19]): 255 nM | Papp [20]: 0.8 ×10⁻⁶ cm/s | half-life [21]: > 120 min | remaining at 2 h [22]: 0.4% | remaining at 2 h [23]: 2.4% | Cmax [24]: 57 nM | inhibition (Homo sapiens): Active | Cmax [25]: 803 nM | pIC50 [26]: > 9.00 | Activity (HDF-1): Dose-dependent effect | pIC50 [27]: 8.39 | Cmax (Oryctolagus cuniculus [28]): > 35 nM | half-life [29]: 12 min | Cmax [30]: 176 nM

From ChEMBL document CHEMBL3425434 (J Med Chem, 2015)
